Measurements published in the NIST ThermoML archive (doi:10.1016/j.jct.2018.07.004).
Values joined by “and” are separate entries in the source; they are usually repeats but may differ in a detail not shown here. Equal entries are not always repeated. Numbers after ± are expanded uncertainties.

Conditions: Calculated from knudsen effusion weight loss

c1ccc(-c2cc(-c3ccccc3)cc(-c3ccccc3)c2)cc1 [1,3,5-triphenylbenzene]
vapor or sublimation pressure (408.04 K, Crystal): 0.000144 ± 7.5e-06 kPa
vapor or sublimation pressure (408.05 K, Crystal): 0.0001488 ± 7.3e-06 kPa
vapor or sublimation pressure (408.16 K, Crystal): 0.0001536 ± 7.5e-06 kPa
vapor or sublimation pressure (413.04 K, Crystal): 0.0002384 ± 1.2e-05 kPa
vapor or sublimation pressure (413.05 K, Crystal): 0.000247 ± 1.2e-05 kPa
vapor or sublimation pressure (413.16 K, Crystal): 0.0002528 ± 1.2e-05 kPa
vapor or sublimation pressure (418.03 K, Crystal): 0.0003878 ± 2.1e-05 kPa
vapor or sublimation pressure (418.05 K, Crystal): 0.0004034 ± 2e-05 kPa
vapor or sublimation pressure (418.15 K, Crystal): 0.0004157 ± 2e-05 kPa
vapor or sublimation pressure (423.03 K, Crystal): 0.0006219 ± 3.3e-05 kPa and 0.0006345 ± 3.2e-05 kPa
vapor or sublimation pressure (423.04 K, Crystal): 0.0006477 ± 3.2e-05 kPa
vapor or sublimation pressure (423.16 K, Crystal): 0.0006722 ± 3.3e-05 kPa
vapor or sublimation pressure (428.03 K, Crystal): 0.0009832 ± 5.6e-05 kPa
vapor or sublimation pressure (428.04 K, Crystal): 0.001026 ± 8.3e-05 kPa
vapor or sublimation pressure (428.16 K, Crystal): 0.001081 ± 8.8e-05 kPa

CCn1cc[n+](C)c1.O=S(=O)([N-]S(=O)(=O)C(F)(F)F)C(F)(F)F
vapor or sublimation pressure (433.05 K, Liquid): 2.8e-06 ± 3.2e-06 kPa
vapor or sublimation pressure (433.1 K, Liquid): 3e-06 ± 3.2e-06 kPa
vapor or sublimation pressure (438.04 K, Liquid): 4.2e-06 ± 3.2e-06 kPa
vapor or sublimation pressure (438.1 K, Liquid): 4.3e-06 ± 3.2e-06 kPa
vapor or sublimation pressure (438.12 K, Liquid): 4.5e-06 ± 3.2e-06 kPa
vapor or sublimation pressure (443.04 K, Liquid): 5.9e-06 ± 3.2e-06 kPa
vapor or sublimation pressure (443.09 K, Liquid): 6.3e-06 ± 3.2e-06 kPa
vapor or sublimation pressure (443.12 K, Liquid): 6.3e-06 ± 3.2e-06 kPa
vapor or sublimation pressure (448.03 K, Liquid): 8.4e-06 ± 3.2e-06 kPa
vapor or sublimation pressure (448.09 K, Liquid): 8.8e-06 ± 3.2e-06 kPa
vapor or sublimation pressure (448.12 K, Liquid): 8.9e-06 ± 3.2e-06 kPa
vapor or sublimation pressure (453.03 K, Liquid): 1.18e-05 ± 3.2e-06 kPa
vapor or sublimation pressure (453.09 K, Liquid): 1.23e-05 ± 3.2e-06 kPa
vapor or sublimation pressure (453.11 K, Liquid): 1.25e-05 ± 3.2e-06 kPa and 1.21e-05 ± 3.2e-06 kPa
vapor or sublimation pressure (453.12 K, Liquid): 1.25e-05 ± 3.2e-06 kPa
vapor or sublimation pressure (458.01 K, Liquid): 1.71e-05 ± 3.2e-06 kPa
vapor or sublimation pressure (458.02 K, Liquid): 1.66e-05 ± 3.2e-06 kPa
vapor or sublimation pressure (458.09 K, Liquid): 1.72e-05 ± 3.2e-06 kPa
vapor or sublimation pressure (458.11 K, Liquid): 1.76e-05 ± 3.3e-06 kPa
vapor or sublimation pressure (458.13 K, Liquid): 1.72e-05 ± 3.2e-06 kPa
vapor or sublimation pressure (463.05 K, Liquid): 2.29e-05 ± 3.3e-06 kPa
vapor or sublimation pressure (463.08 K, Liquid): 2.39e-05 ± 3.3e-06 kPa
vapor or sublimation pressure (463.1 K, Liquid): 2.45e-05 ± 3.3e-06 kPa and 2.42e-05 ± 3.3e-06 kPa
vapor or sublimation pressure (463.12 K, Liquid): 2.38e-05 ± 3.3e-06 kPa
vapor or sublimation pressure (463.13 K, Liquid): 2.39e-05 ± 3.3e-06 kPa
vapor or sublimation pressure (468.04 K, Liquid): 3.16e-05 ± 3.5e-06 kPa
vapor or sublimation pressure (468.08 K, Liquid): 3.27e-05 ± 3.4e-06 kPa
vapor or sublimation pressure (468.1 K, Liquid): 3.41e-05 ± 3.4e-06 kPa
vapor or sublimation pressure (468.11 K, Liquid): 3.33e-05 ± 3.4e-06 kPa
vapor or sublimation pressure (468.12 K, Liquid): 3.29e-05 ± 3.5e-06 kPa
vapor or sublimation pressure (468.13 K, Liquid): 3.32e-05 ± 3.5e-06 kPa
vapor or sublimation pressure (473.04 K, Liquid): 4.32e-05 ± 3.9e-06 kPa
vapor or sublimation pressure (473.07 K, Liquid): 4.5e-05 ± 3.6e-06 kPa
vapor or sublimation pressure (473.1 K, Liquid): 4.61e-05 ± 3.6e-06 kPa
vapor or sublimation pressure (473.12 K, Liquid): 4.51e-05 ± 3.7e-06 kPa
vapor or sublimation pressure (473.13 K, Liquid): 4.53e-05 ± 3.7e-06 kPa
vapor or sublimation pressure (473.14 K, Liquid): 4.69e-05 ± 3.9e-06 kPa
vapor or sublimation pressure (478.04 K, Liquid): 5.84e-05 ± 4e-06 kPa
vapor or sublimation pressure (478.07 K, Liquid): 6.13e-05 ± 3.9e-06 kPa
vapor or sublimation pressure (478.09 K, Liquid): 6.25e-05 ± 3.9e-06 kPa
vapor or sublimation pressure (478.12 K, Liquid): 6.08e-05 ± 4.1e-06 kPa and 6.16e-05 ± 4.2e-06 kPa
vapor or sublimation pressure (478.13 K, Liquid): 6.12e-05 ± 4.1e-06 kPa
vapor or sublimation pressure (483.04 K, Liquid): 7.83e-05 ± 4.8e-06 kPa
vapor or sublimation pressure (483.06 K, Liquid): 8.23e-05 ± 4.4e-06 kPa
vapor or sublimation pressure (483.08 K, Liquid): 8.4e-05 ± 4.4e-06 kPa
vapor or sublimation pressure (483.11 K, Liquid): 8.32e-05 ± 4.4e-06 kPa and 8.24e-05 ± 4.4e-06 kPa
vapor or sublimation pressure (483.12 K, Liquid): 8.26e-05 ± 4.9e-06 kPa
vapor or sublimation pressure (488.05 K, Liquid): 0.0001107 ± 5.3e-06 kPa
vapor or sublimation pressure (488.06 K, Liquid): 0.0001105 ± 5.3e-06 kPa
vapor or sublimation pressure (488.08 K, Liquid): 0.000112 ± 5.3e-06 kPa
vapor or sublimation pressure (488.11 K, Liquid): 0.0001112 ± 5.3e-06 kPa and 0.0001115 ± 5.3e-06 kPa
vapor or sublimation pressure (493.05 K, Liquid): 0.0001465 ± 7e-06 kPa
vapor or sublimation pressure (493.07 K, Liquid): 0.0001477 ± 7e-06 kPa
vapor or sublimation pressure (493.1 K, Liquid): 0.0001477 ± 7e-06 kPa
vapor or sublimation pressure (493.11 K, Liquid): 0.0001477 ± 7e-06 kPa
vapor or sublimation pressure (498.1 K, Liquid): 0.0001931 ± 9.2e-06 kPa
vapor or sublimation pressure (498.11 K, Liquid): 0.0001943 ± 9.2e-06 kPa
vapor or sublimation pressure (503.1 K, Liquid): 0.0002516 ± 1.2e-05 kPa and 0.0002533 ± 1.2e-05 kPa
